# Measured values as given in publication PMC6957260 (European journal of medicinal chemistry, 2013).
# Tests used:
# hTRPV1 = hTRPV1 in HEK-293 cells, cited from earlier work; for EC50: read-out: agonism EC50
# rat TRPV1 [1] = target: T1, rat TRPV1 (Rattus norvegicus, UniProt O35433); assay: competitive binding assay with [3H]RTX, rat TRPV1 in CHO cells; conditions: parents 2 and 3, respectively
# rat TRPV1 [2] = target: T1, rat TRPV1; assay: functional 45Ca2+ uptake assay, agonism, rat TRPV1 in CHO cells; assay type: cell-based; conditions: for fold less potency for agonism compared to the parent compound: rat TRPV1, parents 2 and 3, respectively
# rat TRPV1 [3] = target: T1, rat TRPV1; assay type: cell-based
# rat TRPV1 [4] = target: T1, rat TRPV1; conditions: cited from earlier work
# human TRPV1 = human TRPV1 (Homo sapiens, UniProt Q8NER1); assay type: cell-based
# Sequence of human TRPV1 (Q8NER1 whole entry): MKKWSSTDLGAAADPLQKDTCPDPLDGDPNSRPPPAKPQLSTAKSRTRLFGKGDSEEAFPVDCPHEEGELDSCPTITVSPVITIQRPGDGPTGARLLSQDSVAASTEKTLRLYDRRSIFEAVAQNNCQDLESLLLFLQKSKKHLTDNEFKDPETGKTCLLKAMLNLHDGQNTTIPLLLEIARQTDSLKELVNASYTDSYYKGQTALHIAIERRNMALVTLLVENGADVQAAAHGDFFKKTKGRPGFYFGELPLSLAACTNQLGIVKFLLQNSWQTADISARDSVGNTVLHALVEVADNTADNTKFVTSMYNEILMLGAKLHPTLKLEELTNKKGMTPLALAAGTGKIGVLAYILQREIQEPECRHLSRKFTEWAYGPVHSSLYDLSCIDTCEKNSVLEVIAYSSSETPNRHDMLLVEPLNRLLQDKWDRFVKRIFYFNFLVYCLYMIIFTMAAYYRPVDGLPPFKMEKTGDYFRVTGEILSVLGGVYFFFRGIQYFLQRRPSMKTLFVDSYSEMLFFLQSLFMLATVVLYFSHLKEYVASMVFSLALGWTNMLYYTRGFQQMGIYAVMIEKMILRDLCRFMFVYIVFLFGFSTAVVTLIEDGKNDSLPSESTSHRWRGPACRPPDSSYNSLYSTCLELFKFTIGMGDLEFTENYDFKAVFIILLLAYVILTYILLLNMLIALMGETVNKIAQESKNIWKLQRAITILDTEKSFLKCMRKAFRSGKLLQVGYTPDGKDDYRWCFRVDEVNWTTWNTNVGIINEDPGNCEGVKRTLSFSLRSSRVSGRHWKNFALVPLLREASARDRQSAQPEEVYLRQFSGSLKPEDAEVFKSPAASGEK
# T1 sequence (O35433 whole entry): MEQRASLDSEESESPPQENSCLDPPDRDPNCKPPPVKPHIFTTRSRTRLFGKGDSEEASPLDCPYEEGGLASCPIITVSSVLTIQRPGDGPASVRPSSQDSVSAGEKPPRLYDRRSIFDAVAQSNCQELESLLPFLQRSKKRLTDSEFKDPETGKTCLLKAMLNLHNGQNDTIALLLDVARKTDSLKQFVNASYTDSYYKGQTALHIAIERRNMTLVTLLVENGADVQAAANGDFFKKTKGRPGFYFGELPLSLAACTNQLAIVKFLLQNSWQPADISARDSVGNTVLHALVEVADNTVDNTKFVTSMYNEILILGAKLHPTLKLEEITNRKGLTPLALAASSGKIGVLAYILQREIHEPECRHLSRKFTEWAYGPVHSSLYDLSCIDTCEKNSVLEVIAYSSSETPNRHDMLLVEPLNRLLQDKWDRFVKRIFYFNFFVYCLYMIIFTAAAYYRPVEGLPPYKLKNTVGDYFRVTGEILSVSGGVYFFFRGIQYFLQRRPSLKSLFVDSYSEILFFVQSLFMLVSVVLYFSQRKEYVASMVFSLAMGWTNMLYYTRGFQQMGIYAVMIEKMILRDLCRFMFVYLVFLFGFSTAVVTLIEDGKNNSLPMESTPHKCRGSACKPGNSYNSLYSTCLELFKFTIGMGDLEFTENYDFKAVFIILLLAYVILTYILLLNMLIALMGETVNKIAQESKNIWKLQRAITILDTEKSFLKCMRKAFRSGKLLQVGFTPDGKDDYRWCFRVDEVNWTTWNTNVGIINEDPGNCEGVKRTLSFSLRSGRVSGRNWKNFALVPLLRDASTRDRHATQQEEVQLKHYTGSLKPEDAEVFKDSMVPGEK
compound,measurement,setting,value
"C=C(C)[C@]12C[C@@H](C)[C@@]34O[C@](Cc5ccccc5)(O[C@@H]1[C@@H]3C=C(COC(=O)Cc1ccc(O)c(OC)c1)C[C@]1(O)C(=O)C(C)=C[C@@H]41)O2 [Compound 1, Resiniferatoxin, reference compound]",EC50,hTRPV1,0.019 nM
C=C(C)[C@]12C[C@@H](C)[C@@]34O[C@](Cc5ccccc5)(O[C@@H]1[C@@H]3C=C(COC(=O)Oc1ccc(N)c(OC)c1)C[C@]1(O)C(=O)C(C)=C[C@@H]41)O2 [Compound 62],fold less potency in binding affinity compared to the parent compound,rat TRPV1 [1],4.5 fold
same,fold less potency for agonism compared to the parent compound,rat TRPV1 [2],4 fold
C=C(C)[C@]12C[C@@H](C)[C@@]34O[C@](Cc5ccccc5)(O[C@@H]1[C@@H]3C=C(COC(=O)Oc1cc(Br)c(N)c(OC)c1)C[C@]1(O)C(=O)C(C)=C[C@@H]41)O2 [Compound 66],fold more potent than I-RTX (antagonism),rat TRPV1 [3],ca. 5 fold
C=C(C)[C@@]12C[C@@H](C)C34OC(Cc5ccccc5)(OC1[C@@H]3C=C(COC(=O)Cc1cc(Br)c(N)c(OC)c1)C[C@]1(O)C(=O)C(C)=C[C@@H]41)O2 (some centres unmarked) [5-bromo-4-amino RTX],fold more potent than 5′-iodo RTX (antagonism),rat TRPV1 [4],4.5 fold
C=C(C)[C@]12C[C@@H](C)[C@@]34O[C@](Cc5ccccc5)(O[C@@H]1[C@@H]3C=C(COC(=O)Oc1cc(F)c(N)c(OC)c1)C[C@]1(O)C(=O)C(C)=C[C@@H]41)O2 [Compound 64],mean % of agonism relative to capsaicin,human TRPV1,"a The mean % of agonism relative to capsaicin: 52% for 58, 90% for 64."
C=C(C)[C@]12C[C@@H](C)[C@@]34O[C@](Cc5ccccc5)(O[C@@H]1[C@@H]3C=C(COC(=O)Oc1cc(I)c(O)c(OC)c1)C[C@]1(O)C(=O)C(C)=C[C@@H]41)O2 [Compound 60],fold more potent than RTX (agonism),hTRPV1,ca. 4 fold
same,EC50,hTRPV1,0.0047 nM
C=C(C)[C@]12C[C@@H](C)[C@@]34O[C@](Cc5ccccc5)(O[C@@H]1[C@@H]3C=C(COC(=O)Oc1cc(Cl)c(N)c(OC)c1)C[C@]1(O)C(=O)C(C)=C[C@@H]41)O2 [Compound 65],fold more potent than I-RTX (antagonism),rat TRPV1 [3],ca. 5 fold
C=C(C)[C@]12C[C@@H](C)[C@@]34O[C@](Cc5ccccc5)(O[C@@H]1[C@@H]3C=C(COC(=O)Oc1cc(Cl)c(O)c(OC)c1)C[C@]1(O)C(=O)C(C)=C[C@@H]41)O2 [Compound 58],mean % of agonism relative to capsaicin,rat TRPV1 [2],"a The mean % of agonism relative to capsaicin: 13% for 58, 89% for 63, 83% for 64."
same,mean % of agonism relative to capsaicin,human TRPV1,"a The mean % of agonism relative to capsaicin: 52% for 58, 90% for 64."
C=C(C)[C@]12C[C@@H](C)[C@@]34O[C@](Cc5ccccc5)(O[C@@H]1[C@@H]3C=C(COC(=O)Oc1ccc(NS(C)(=O)=O)c(OC)c1)C[C@]1(O)C(=O)C(C)=C[C@@H]41)O2 [Compound 63],fold less potency in binding affinity compared to the parent compound,rat TRPV1 [1],5.5 fold
same,fold less potency for agonism compared to the parent compound,rat TRPV1 [2],40 fold
C=C(C)[C@]12C[C@@H](C)[C@@]34O[C@](Cc5ccccc5)(O[C@@H]1[C@@H]3C=C(COC(=O)Oc1cc(F)c(O)c(OC)c1)C[C@]1(O)C(=O)C(C)=C[C@@H]41)O2 [Compound 57],"fold less potent than RTX (functional activity, agonism)",rat TRPV1 [2]; rTRPV1,ca. 5 fold
